Results reported in paper PMC3105092 (PLoS ONE, 2011).
Values joined by “and” are separate entries in the source; they are usually repeats but may differ in a detail not shown here. Equal values may be shown once.

Columns and labels:
[1] = molecular target: T1, AgCPR (Anopheles gambiae NADPH-cytochrome P450 oxidoreductase) (Anopheles gambiae, UniProt Q86QH5); experiment: Isothermal titration calorimetry of nucleotide ligands with AgCPR; type: binding; conditions: for Kobs / TΔS / n (binding stoichiometry) / ΔG / ΔH: 25°C, 100 mM BES pH 7.0
T1 sequence (Q86QH5 64-679): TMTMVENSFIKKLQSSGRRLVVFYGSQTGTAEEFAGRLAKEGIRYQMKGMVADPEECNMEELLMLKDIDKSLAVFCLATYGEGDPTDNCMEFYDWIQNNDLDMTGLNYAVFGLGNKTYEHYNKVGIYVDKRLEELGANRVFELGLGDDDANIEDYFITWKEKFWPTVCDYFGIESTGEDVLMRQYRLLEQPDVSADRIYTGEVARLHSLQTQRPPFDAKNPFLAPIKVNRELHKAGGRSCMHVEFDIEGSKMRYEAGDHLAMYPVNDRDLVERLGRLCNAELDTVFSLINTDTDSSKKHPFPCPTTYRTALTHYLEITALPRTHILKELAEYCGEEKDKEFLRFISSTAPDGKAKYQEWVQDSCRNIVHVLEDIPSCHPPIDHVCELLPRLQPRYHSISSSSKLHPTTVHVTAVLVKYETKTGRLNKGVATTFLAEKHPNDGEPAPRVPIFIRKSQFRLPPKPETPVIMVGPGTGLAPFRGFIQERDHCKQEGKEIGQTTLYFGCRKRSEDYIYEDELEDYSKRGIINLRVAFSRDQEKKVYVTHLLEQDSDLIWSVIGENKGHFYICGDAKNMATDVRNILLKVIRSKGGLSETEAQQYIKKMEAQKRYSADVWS
Method: (§1) ITC experiments were performed using a ITC200 microcalorimeter (Microcal Inc/GE Healthcare). Protein samples were dialysed into 100 mM BES; pH 7.0 from 50% glycerol stocks stored at −20°C. The concentrations of all the proteins were determined by using Bradford assay. Samples were centrifuged at 13,000×g for 10 min and degassed at 23°C (2°C below the temperature at which the experiments were performed). All experiments were performed at 25°C. Typically, the protein concentration in the cell was 10–20 µM whilst ligand concentrations were in the range of 100–1000 µM. The data analysed using Origin 7.0 (Microcal) after subtracting the heats of dilution obtained from parallel experiments performed by injecting the nucleotide into the buffer. Thermodynamic parameters n (stoichiometry), K d (1/K a, the association constant), and Δ°H (enthalpy change) were obtained by nonlinear least-squares fitting of experimental data using the single-site binding model. The free energy of binding (ΔG°) and entropy change (ΔS°) were obtained using eqs 1 and 2.

hCPR (human CPR) = molecular target: T2, hCPR (human CPR) (Homo sapiens, UniProt P16435); experiment: Isothermal titration calorimetry of nucleotide ligands with hCPR; type: binding; conditions: ITC, 25°C, 100 mM BES pH 7.0
T2 sequence (P16435 43-677 limits assumed): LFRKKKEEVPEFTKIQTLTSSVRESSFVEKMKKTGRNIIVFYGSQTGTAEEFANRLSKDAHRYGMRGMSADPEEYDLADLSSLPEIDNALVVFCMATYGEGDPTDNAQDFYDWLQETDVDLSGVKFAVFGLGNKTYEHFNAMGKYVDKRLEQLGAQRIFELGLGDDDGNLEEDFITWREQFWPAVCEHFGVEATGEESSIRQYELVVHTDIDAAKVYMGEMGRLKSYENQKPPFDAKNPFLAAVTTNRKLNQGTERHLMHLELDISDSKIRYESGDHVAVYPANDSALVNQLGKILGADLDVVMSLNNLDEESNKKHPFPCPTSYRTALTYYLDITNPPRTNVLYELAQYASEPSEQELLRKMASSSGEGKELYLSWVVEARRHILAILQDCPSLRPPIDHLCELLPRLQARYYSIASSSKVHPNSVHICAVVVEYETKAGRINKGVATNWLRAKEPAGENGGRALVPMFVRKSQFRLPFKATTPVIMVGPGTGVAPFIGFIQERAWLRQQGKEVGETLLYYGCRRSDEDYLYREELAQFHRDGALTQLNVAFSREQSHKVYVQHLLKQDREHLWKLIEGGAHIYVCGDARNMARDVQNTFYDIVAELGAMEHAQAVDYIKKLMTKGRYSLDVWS
Method: as §1

AgCPR [2] = molecular target: T3, AgCPR (Anopheles gambiae, UniProt Q86QH5); experiment: Inhibition of cytochrome c reduction by AgCPR; type: biochemical
Method: (§3) Measurement of cytochrome c reduction was carried out at 25°C with 50 µM cytochrome c and 0.75 pmol purified AgCPR or hCPR essentially as described [17] using 0.3 M potassium phosphate buffer, pH 7.7 or 0.1 M Tris-HCl, pH 7.7/0.1 M KCl, and different concentrations of 2′, 5′-ADP, 2′-AMP, NADP or diphenyliodonium chloride (all from Sigma-Aldrich, UK).

hCPR [3] = molecular target: T4, hCPR (Homo sapiens, UniProt P16435); experiment: Inhibition of cytochrome c reduction by hCPR; type: biochemical
T4 sequence (P16435 43-677 limits assumed): T2 sequence (P16435 43-677 limits assumed)
Method: as §3

[4] = molecular target: methionine synthase reductase; conditions: read-out: low affinity binding mode (Kd); cited from earlier work
hCPR [5] = molecular target: T5, hCPR (Homo sapiens, UniProt P16435); experiment: Isothermal titration calorimetry of oxidised CPR with nucleotides in phosphate-free 100 mM BES, pH 7.0, 25 °C, single-site model; Kd = 1/Kobs.; type: binding
T5 construct: gene POR
T5 sequence (P16435 64-677): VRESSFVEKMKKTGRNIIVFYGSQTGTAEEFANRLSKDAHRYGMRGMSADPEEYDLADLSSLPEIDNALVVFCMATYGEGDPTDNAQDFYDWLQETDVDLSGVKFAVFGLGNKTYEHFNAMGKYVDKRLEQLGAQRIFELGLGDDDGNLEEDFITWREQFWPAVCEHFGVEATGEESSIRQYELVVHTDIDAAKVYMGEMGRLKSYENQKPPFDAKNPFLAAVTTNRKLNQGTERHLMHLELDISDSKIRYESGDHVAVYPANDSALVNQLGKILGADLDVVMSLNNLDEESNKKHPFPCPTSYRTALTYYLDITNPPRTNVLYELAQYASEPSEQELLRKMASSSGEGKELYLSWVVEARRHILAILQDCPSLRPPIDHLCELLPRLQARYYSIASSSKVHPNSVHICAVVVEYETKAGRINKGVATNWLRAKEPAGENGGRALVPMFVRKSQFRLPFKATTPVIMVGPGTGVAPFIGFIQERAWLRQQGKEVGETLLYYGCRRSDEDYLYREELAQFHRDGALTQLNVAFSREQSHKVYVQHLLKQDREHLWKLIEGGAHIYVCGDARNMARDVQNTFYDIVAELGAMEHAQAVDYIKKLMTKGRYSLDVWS
Excerpt: Figure 3 represents the ITC binding isotherms resulting from the titration of AgCPR with 2′, 5′-ADP, NADP+ and 2′-AMP.

hCPR [6] = molecular target: T5, hCPR; experiment: Inhibition of cytochrome c (50 µM) reduction in phosphate-free 0.1 M Tris-HCl pH 7.7/0.1 M KCl, 25 °C, started with 12 µM (AgCPR) or 5 µM (hCPR) NADPH.; type: biochemical; conditions: SEM; read-out: IC50 µM (±S.E.), Tris Buffer
Method: as §3

AgCPR [7] = molecular target: T3, AgCPR; experiment: Inhibition of cytochrome c (50 µM) reduction in 0.3 M potassium phosphate pH 7.7, 25 °C, started with 30 µM NADPH (AgCPR).; type: biochemical; parameters: Δ63AgCPR: soluble, membrane anchor (amino acids 2-63) deleted; His-tag removed by thrombin; expressed in E. coli; conditions: SEM; read-out: IC50 µM (±S.E.), Phosphate Buffer
Method: as §3

AgCPR [8] = molecular target: T3, AgCPR; experiment: Inhibition of cytochrome c (50 µM) reduction in phosphate-free 0.1 M Tris-HCl pH 7.7/0.1 M KCl, 25 °C, started with 12 µM (AgCPR) or 5 µM (hCPR) NADPH.; type: biochemical; parameters: Δ63AgCPR: soluble, membrane anchor (amino acids 2-63) deleted; His-tag removed by thrombin; expressed in E. coli; conditions: SEM; read-out: IC50 µM (±S.E.), Tris Buffer
Method: as §3

AgCPR [9] = molecular target: T3, AgCPR; experiment: Cytochrome c and NADPH steady-state kinetics, AgCPR; type: biochemical; conditions: phosphate buffer, 50 µM NADPH, 25°C; read-out: Km cytc
Method: (§4) The rate of change of absorbance of horse heart cytochrome c (Sigma-Aldrich, UK) at 550 nm was measured at 25°C using a Cary 4000 UV-Visible spectrophotometer essentially as described [17]. For cytochrome c kinetics, 0.75 pmol purified AgCPR or hCPR was pre-incubated with 0–110 µM cytochrome c (dissolved in 0.3 M potassium phosphate buffer; pH 7.7 or 0.1 M Tris-HCl, pH 7.7/0.1 M KCl) in a total volume of 500 µl for 2 min at 25°C.

hCPR [10] = molecular target: T4, hCPR; experiment: Cytochrome c and NADPH steady-state kinetics, hCPR; type: biochemical; conditions: phosphate buffer, 50 µM NADPH, 25°C; read-out: Km cytc
Method: as §4

[11] = molecular target: human anchorless NADPH-cytochrome P450 oxidoreductase (hCPR) (human) (UniProt P16435)
[12] = molecular target: Δ63AgCPR (Anopheles gambiae NADPH-cytochrome P450 oxidoreductase lacking the N-terminal membrane anchor) (Anopheles gambiae)
[13] = molecular target: T6, isolated apo-human FMN-binding domain of CPR (Homo sapiens, UniProt P16435); experiment: Isothermal titration calorimetry of FMN with apo-human FMN-binding domain; conditions: ITC, 25°C, 100 mM BES
T6 sequence (P16435 80-224 limits assumed): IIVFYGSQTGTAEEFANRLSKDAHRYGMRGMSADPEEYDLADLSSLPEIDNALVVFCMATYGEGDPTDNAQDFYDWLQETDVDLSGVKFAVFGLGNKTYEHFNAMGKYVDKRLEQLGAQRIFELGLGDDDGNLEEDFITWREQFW
Method: as §1
(§2) The binding affinity of FMN to the isolated FMN-binding domains of both A. gambiae and hCPR were also examined by titration of the apo-FMN binding domains (Figure 4). Both isotherms show reasonable binding and saturation of the apo-proteins is achieved with excess flavin.

[14] = molecular target: isolated apo-A. gambiae FMN-binding domain of CPR (Anopheles gambiae, UniProt Q86QH5); experiment: Isothermal titration calorimetry of FMN with apo-A. gambiae FMN-binding domain; conditions: ITC
Method: as §1, §2

[15] = IC50 (±S.E.), inhibition of cytochrome c reduction, Human CPR, Phosphate Buffer (0.3 M potassium phosphate pH 7.7), 15 µM NADPH, 50 µM cytochrome c, 25°C
[16] = read-out: IC50 (±S.E.), inhibition of cytochrome c reduction
[17] = 25°C, 100 mM BES, A. gambiae apo-FMN domain

Chain of horse heart cytochrome c (P00004 whole entry): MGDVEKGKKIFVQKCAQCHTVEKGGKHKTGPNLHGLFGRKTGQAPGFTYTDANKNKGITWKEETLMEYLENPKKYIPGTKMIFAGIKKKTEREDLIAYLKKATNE
Chain of human anchorless NADPH-cytochrome P450 oxidoreductase (hCPR) (human) (P16435 2-21): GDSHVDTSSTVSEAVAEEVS

Compound: Nc1ncnc2c1ncn2[C@@H]1O[C@H](COP(=O)(O)O)[C@@H](O)[C@H]1OP(=O)(O)O [2′,5′-ADP]
- Kd [1]: 0.41 ± 0.018 µM
- binding (Kd) to AgCPR weaker than hCPR (fold) ([1]; ITC): ~10 fold
- Kobs ([1]; ITC): 24.4±1.07 ×10^5 M^−1
- TΔS ([1]; ITC): -4.73 kcal/mol
- n (binding stoichiometry) ([1]; ITC): 1.01±0.03
- ΔG ([1]; ITC): -8.40 kcal/mol
- ΔH ([1]; ITC): -13.13 kcal/mol and -13.13 ± 0.35 kcal/mol
- Kobs (hCPR (human CPR)): 263±26.3 ×10^5 M^−1
- TΔS (hCPR (human CPR)): -9.97 kcal/mol
- n (binding stoichiometry) (hCPR (human CPR)): 1.00±0.02
- ΔG (hCPR (human CPR)): -10.39 kcal/mol
- ΔH (hCPR (human CPR)): -20.36 kcal/mol and -20.36 ± 0.53 kcal/mol
- IC50 of AgCPR relative to hCPR (fold higher) (AgCPR [2]; both phosphate and phosphate-free buffer): 6–10 fold
- affinity for mosquito CPR lower than human (fold, from IC50) (AgCPR [2]; phosphate-free Tris buffer): 6 fold
- IC50 (hCPR [3]; [15]): 28 ± 2 µM
- Kd [4]: ~0.5 µM

Compound: Nc1ncnc2c1ncn2[C@@H]1O[C@H](CO)[C@@H](O)[C@H]1OP(=O)(O)O [2′-AMP, adenosine 2′-monophosphate]
- Kd (hCPR [5]): 1.6 ± 0.44 µM
- IC50 (hCPR [6]): 280 ± 25 µM
- IC50 (AgCPR [7]): 1090 ± 202 µM
- IC50 (AgCPR [8]): 384 ± 27 µM

Compound: NADP^+
- Kobs (hCPR (human CPR)): 145±24.5 ×10^5 M^−1
- TΔS (hCPR (human CPR)): -8.91 kcal/mol
- n (binding stoichiometry) (hCPR (human CPR)): 1.01±0.12
- ΔG (hCPR (human CPR)): -10.55 kcal/mol
- ΔH (hCPR (human CPR)): -19.46 kcal/mol and -19.46 ± 2.92 kcal/mol

Compound: c1ccc([I+]c2ccccc2)cc1 [diphenyliodonium chloride]
- IC50 (AgCPR [2]): 28 ± 2 µM
- AgCPR more sensitive to inhibition than hCPR (fold) (AgCPR [2]; cytochrome c reduction, phosphate buffer): ~10 fold

Compound: Nc1ncnc2c1ncn2[C@@H]1O[C@H](CO)[C@@H](O)[C@H]1OP(=O)(O)O [2′-AMP]
- Kd [1]: 4 ± 0.18 µM
- Kobs ([1]; ITC): 2.51±0.11 ×10^5 M^−1
- TΔS ([1]; ITC): -2.19 kcal/mol
- n (binding stoichiometry) ([1]; ITC): 1.01±0.22
- ΔG ([1]; ITC): -5.47 kcal/mol
- ΔH ([1]; ITC): -7.66 ± 1.98 kcal/mol
- Kobs (hCPR (human CPR)): 6.15±1.69 ×10^5 M^−1
- TΔS (hCPR (human CPR)): -3.21 kcal/mol
- n (binding stoichiometry) (hCPR (human CPR)): 1.02±0.06
- ΔG (hCPR (human CPR)): -7.86 kcal/mol
- ΔH (hCPR (human CPR)): -11.07 ± 0.88 kcal/mol
- IC50 (AgCPR [2]; [16]): 468 µM
- IC50 (hCPR [3]; [15]): 1090 µM
- IC50 (hCPR [3]; [16]): 468 ± 41 µM

Compound: cytochrome c: horse heart cytochrome c, surrogate electron acceptor for measuring diflavin reductase activity
- Km (AgCPR [9]): 23 µM
- Km (hCPR [10]): 19 µM

Compound: Nc1ncnc2c1ncn2[C@@H]1O[C@H](COP(=O)(O)O)[C@@H](O)[C@H]1OP(=O)(O)O [2′,5′-ADP, adenosine 2′,5′-diphosphate]
- Kd (hCPR [5]): 0.038 ± 0.0038 µM
- IC50 (hCPR [6]): 10 ± 1 µM
- IC50 (AgCPR [7]): 262 ± 18 µM
- IC50 (AgCPR [8]): 62 ± 7 µM

Compound: horse heart cytochrome c (from UniProt P00004 1-105) (natural protein)
- Km^cytc of NADPH-dependent cytochrome c reduction (steady state, 0-110 µM cytochrome c, phosphate buffer, 25°C) [11]: 19 µM
- Km^cytc of NADPH-dependent cytochrome c reduction (steady state, 0-110 µM cytochrome c, phosphate buffer, 25°C) [12]: 23 µM

Compound: Cc1cc2nc3c(=O)[nH]c(=O)nc-3n(C[C@H](O)[C@H](O)[C@H](O)COP(=O)(O)O)c2cc1C [FMN, flavin mononucleotide]
- Kd [13]: 0.023 ± 0.0009 µM
- Kobs [13]: 438±17.5 ×10^5 M^−1
- n (binding stoichiometry) [13]: 1.00±0.01
- ΔG [13]: -10.28 kcal/mol
- ΔH [13]: -19.46 ± 0.35 kcal/mol
- FMN binding to A. gambiae FMN domain weaker than human domain (fold) [14]: ~4 fold
- Kd [14, 17]: 0.083 ± 0.002 µM
- Kobs [14, 17]: 120±3.19 ×10^5 M^−1
- TΔS [14, 17]: -3.58 kcal/mol
- n (binding stoichiometry) [14, 17]: 0.98±0.01
- ΔG [14, 17]: -9.60 kcal/mol
- ΔH [14, 17]: -13.18 ± 0.19 kcal/mol
